Results from patent US6136817A, “Opioid receptor antagonist compounds” (Astra AB, priority 1994, dated 2000).
Where a name gives a salt, the structure may show the parent alone.

Target: T1, δ opioid receptors (Mus musculus, UniProt P32300)
T1 construct: antagonism of the delta-selective agonist DPDPE
Test: opioid antagonism against receptor selective agonists (DAMGO, μ; Cl 977, κ; DPDPE, δ) in electrical stimulated guinea-pig ileum (GPI) and mouse vas deferens (MVD) preparations
Type: cell-based
Method: δ-Antagonism was assessed using the electrical stimulated guinea-pig ileum longitudinal muscle preparation (GPI; containing μ and κ opioid receptors) and mouse vas deferens preparation (MVD; containing μ, κ and δ opioid receptors) (H. Schmidhammer et al., J. Med. Chem., Vol. 32: 418-421, 1989; H Schnmidhammer et al., J. Med. Chem., Vol. 33:1200-1206,1990). The activity of the compound 1 of the Examples for inhibiting the suppression of contraction of the organs by three receptor selective agonists (DAMGO, μ; Cl 977, κ; DPDPE, δ) was measured.

T1 sequence (P32300 whole entry): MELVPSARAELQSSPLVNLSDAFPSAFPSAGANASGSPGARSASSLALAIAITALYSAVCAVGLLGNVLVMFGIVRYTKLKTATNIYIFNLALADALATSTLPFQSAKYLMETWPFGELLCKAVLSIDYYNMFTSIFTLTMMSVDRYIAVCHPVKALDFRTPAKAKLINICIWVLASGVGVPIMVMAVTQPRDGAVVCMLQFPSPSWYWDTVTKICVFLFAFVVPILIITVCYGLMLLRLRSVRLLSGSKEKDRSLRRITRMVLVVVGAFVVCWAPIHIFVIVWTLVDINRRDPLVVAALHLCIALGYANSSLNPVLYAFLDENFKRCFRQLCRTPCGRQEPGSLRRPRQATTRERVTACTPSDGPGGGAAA

Structure (SMILES): CCO[C@@]12Cc3c([nH]c4ccccc34)[C@]3(C)Oc4c(O)ccc5c4[C@@]31CCN(CC1CC1)[C@@H]2C5 [compound 1, 17-(Cyclopropylmethyl)-6,7-dehydro-4,5α-epoxy-14-ethoxy-3-hydroxy-5-methyl-6,7-2',3'-indolomorphinan hydrochloride]
- opioid antagonism (inhibiting the suppression of contraction of the organs by receptor selective agonists) (GPI and MVD preparations, agonists DAMGO (μ), Cl 977 (κ), DPDPE (δ)): δ-selective opioid antagonism
- κ/δ selectivity ratio (antagonism of Cl 977 (κ) vs DPDPE (δ)): very good
- μ/δ selectivity ratio (antagonism of DAMGO (μ) vs DPDPE (δ)): very good
